According to patent US12642796B2, “Method and device of treating chronic kidney disease-associated pruritus” (Avior, Inc., priority 2018, dated 2026):
Where “and” joins values, the source holds several entries; their conditions need not be identical. Equal entries are not always repeated.

Experiments:
C57BL mice = assay: Effect of nalmefene on SP-induced scratching behavior (Example 2); assay type: in vivo, mouse; details: nalmefene SC 1 hour prior to SP ID 33.7 μg; 30 and 60 minutes after SP, FIG. 3
Method: Scratching behavior was monitored for 30 and 60 minutes after SP injection. Controls included mice that received PBS instead of SP (N=6, Group 5) and mice that received a placebo dose of PBS and ID dose of SP (N=4, Group 6).

C57BL/6 mice = assay: SP and nalmefene injection, scratches Groups 10-12, 0-60 minutes (Example 3); assay type: in vivo, mouse
Method: Fifteen male C57BL/6 mice received a single intradermal (ID) bolus injection of substance P (SP) or PBS. Group 10 (N=6) received a single 50 μL injection of PBS. Group 11 (N=4) received SP in PBS at a dose of 0.5 mM/50 μl. […] Scratching behavior was video recorded and assessed.
Groups 10 and 11: All mice were placed in a clear cylindrical enclosure 60 minutes prior to testing to acclimate. An ID bolus injection of SP in PBS was administered. Recording began immediately following injection of SP and recorded for 60 minutes.
Group 12: All mice were placed in clear cylinder enclosures for 60 minutes prior to testing to acclimate. A SC bolus injection of nalmefene was administered. 30 minutes after the nalmefene injection, an ID bolus injection of SP in PBS was administered. Recording began immediately following injection of SP and recorded for 60 minutes.
Animals in Groups 10-12 were acclimated for 1 hour prior to recording. Behavioral recording lasted for 60 minutes (T0-T60). 6 animals were dosed for Group 12 but only 5 animals were tested due to one animal being excluded as an outlier due to no response to SP injection.
The number of scratches per 10-minute time interval for Groups 10-12 is given below in Table 3. The data is also shown graphically in FIG. 4.
The number of scratches per 0-30 minute and 30-60 minute time intervals is given below in Table 4 for Group 10 (PBS), Group 11 (0.5 mM SP), and Group 12 (0.75 mg nalmefene). The data is also shown graphically in FIG. 5.

[1] = Group 12, Nalmefene 0.75 mg SC before SP 0.5 mM ID, 0-30 min
[2] = Group 12, Nalmefene 0.75 mg SC before SP 0.5 mM ID, 30-60 min
[3] = Group 12, nalmefene 0.075 mg/75 μL SC 30 min prior to SP 0.5 mM/50 μL ID, 0-10 min
[4] = Group 12, nalmefene 0.075 mg/75 μL SC 30 min prior to SP 0.5 mM/50 μL ID, 10-20 min
[5] = Group 12, nalmefene 0.075 mg/75 μL SC 30 min prior to SP 0.5 mM/50 μL ID, 20-30 min
[6] = Group 12, nalmefene 0.075 mg/75 μL SC 30 min prior to SP 0.5 mM/50 μL ID, 30-40 min
[7] = Group 12, nalmefene 0.075 mg/75 μL SC 30 min prior to SP 0.5 mM/50 μL ID, 40-50 min
[8] = Group 12, nalmefene 0.075 mg/75 μL SC 30 min prior to SP 0.5 mM/50 μL ID, 50-60 min

C=C1CC[C@@]2(O)[C@H]3Cc4ccc(O)c5c4[C@@]2(CCN3CC2CC2)[C@H]1O5 [Nalmefene, 6-methylene-6-deoxy-N-cyclopropylmethyl-14 hydroxydihydronormorphine]
pruritogenic response to SP (C57BL mice): completely mitigated
Scratches, Avg. (C57BL/6 mice; [1]): 8.6
Scratches, individual animals (C57BL/6 mice; [1]): 10 and 29 and 0 (2×) and 4
Scratches, Avg. (C57BL/6 mice; [2]): 2.9
Scratches, individual animals (C57BL/6 mice; [2]): 1 and 5 and 0 (2×) and 8.5
Scratches, Avg. (C57BL/6 mice; [3]): 2
Scratches, individual animals (C57BL/6 mice; [3]): 10 and 0 (4×)
Scratches, Avg. (C57BL/6 mice; [4]): 3
Scratches, individual animals (C57BL/6 mice; [4]): 0 (3×) and 13 and 2
Scratches, Avg. (C57BL/6 mice; [5]): 3.6
Scratches, individual animals (C57BL/6 mice; [5]): 0 (3×) and 16 and 2
Scratches, Avg. (C57BL/6 mice; [6]): 1
Scratches, individual animals (C57BL/6 mice; [6]): 0 (4×) and 5
Scratches, Avg. (C57BL/6 mice; [7]): 1.8
Scratches, individual animals (C57BL/6 mice; [7]): 0.5 and 5 and 0 (2×) and 3.5
Scratches, Avg. (C57BL/6 mice; [8]): 0.1
Scratches, individual animals (C57BL/6 mice; [8]): 0.5 and 0 (4×)
ability to control scratching behavior, and by extension pruritus (C57BL/6 mice; Group 12 vs Groups 10 and 11, 0-60 min): maintained over the hour
